Each structure is given as a SMILES string.

For this assay, the target named is T1, human Nav1.8 (Homo sapiens, UniProt Q9Y5Y9).
T1 construct: expressed in transfected cells; host or cells: HEK293 (HEK293-Nav1.8)
T1 sequence (Q9Y5Y9 whole entry): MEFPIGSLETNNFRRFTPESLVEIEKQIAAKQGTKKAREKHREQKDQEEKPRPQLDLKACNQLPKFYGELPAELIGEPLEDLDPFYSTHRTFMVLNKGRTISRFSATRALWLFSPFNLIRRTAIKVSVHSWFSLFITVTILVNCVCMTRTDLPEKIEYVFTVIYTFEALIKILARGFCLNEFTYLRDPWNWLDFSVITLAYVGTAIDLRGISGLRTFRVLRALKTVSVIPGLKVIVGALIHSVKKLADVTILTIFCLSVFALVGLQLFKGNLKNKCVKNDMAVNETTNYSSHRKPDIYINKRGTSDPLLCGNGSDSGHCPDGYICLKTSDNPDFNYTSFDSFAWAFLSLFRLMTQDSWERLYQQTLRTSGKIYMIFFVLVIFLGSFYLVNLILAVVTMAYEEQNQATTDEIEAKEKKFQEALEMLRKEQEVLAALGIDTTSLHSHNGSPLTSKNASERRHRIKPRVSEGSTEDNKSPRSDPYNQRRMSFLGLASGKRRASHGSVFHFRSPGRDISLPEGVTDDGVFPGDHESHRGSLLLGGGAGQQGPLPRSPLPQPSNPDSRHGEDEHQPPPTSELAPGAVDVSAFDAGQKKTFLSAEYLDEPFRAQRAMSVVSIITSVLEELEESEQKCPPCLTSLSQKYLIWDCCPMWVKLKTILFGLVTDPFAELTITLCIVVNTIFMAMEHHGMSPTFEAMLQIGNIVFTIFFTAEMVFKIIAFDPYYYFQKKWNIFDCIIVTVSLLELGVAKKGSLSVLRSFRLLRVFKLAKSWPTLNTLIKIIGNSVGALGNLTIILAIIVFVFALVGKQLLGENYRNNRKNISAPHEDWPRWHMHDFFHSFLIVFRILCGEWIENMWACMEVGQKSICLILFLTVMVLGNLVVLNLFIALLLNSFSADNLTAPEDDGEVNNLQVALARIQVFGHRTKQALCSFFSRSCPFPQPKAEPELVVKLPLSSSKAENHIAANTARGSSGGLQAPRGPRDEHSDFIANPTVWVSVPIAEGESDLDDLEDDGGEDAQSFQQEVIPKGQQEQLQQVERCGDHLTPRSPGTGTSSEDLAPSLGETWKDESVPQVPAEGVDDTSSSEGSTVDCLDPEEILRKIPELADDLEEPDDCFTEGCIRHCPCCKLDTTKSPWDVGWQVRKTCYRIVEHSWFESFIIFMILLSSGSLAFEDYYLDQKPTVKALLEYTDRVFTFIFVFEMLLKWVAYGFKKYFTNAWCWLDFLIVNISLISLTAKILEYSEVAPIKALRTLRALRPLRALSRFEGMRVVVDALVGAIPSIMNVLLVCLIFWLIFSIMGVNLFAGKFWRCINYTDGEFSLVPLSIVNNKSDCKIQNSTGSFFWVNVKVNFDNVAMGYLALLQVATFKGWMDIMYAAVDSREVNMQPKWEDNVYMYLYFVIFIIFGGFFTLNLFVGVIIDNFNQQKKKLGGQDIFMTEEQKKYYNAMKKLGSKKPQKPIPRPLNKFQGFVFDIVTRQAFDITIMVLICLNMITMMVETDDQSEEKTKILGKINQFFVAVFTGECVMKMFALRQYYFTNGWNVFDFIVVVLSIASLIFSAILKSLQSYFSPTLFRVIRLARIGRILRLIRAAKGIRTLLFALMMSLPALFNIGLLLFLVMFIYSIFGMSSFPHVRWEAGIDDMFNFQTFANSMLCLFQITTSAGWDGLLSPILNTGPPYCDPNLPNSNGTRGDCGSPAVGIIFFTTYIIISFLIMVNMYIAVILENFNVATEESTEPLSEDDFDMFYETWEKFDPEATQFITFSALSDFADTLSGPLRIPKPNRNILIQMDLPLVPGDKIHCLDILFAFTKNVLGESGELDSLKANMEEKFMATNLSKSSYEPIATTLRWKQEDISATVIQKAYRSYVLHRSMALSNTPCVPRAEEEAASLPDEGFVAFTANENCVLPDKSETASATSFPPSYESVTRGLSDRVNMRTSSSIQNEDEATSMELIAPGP
T1 sequence (Q07699 19-218 partner): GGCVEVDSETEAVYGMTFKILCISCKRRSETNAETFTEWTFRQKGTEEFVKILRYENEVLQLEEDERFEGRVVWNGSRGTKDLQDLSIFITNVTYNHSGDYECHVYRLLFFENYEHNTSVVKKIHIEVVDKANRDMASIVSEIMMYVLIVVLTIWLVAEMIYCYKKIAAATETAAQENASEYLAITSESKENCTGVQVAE
Kind of assay: Nav1.8 sodium channels assay, QPatch 48 HTX electrophysiology in HEK293-Nav1.8 cells. The conditions noted are these: at least one set of experimental runs; read-out: average pIC50 value against Nav1.8 (converted). The format is cell-based. Summed up: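 HEK293 cells co-expressing human Nav1.8, Navβ1 and TREK1 were voltage-clamped on QPatch 48 HTX. The V1/2 protocol ran at 0.07 Hz: hold −100 mV, 20 ms to 0 mV, 8 s at −46 mV, 20 ms at −100 mV, then 20 ms at 0 mV (P2). P2 current was fitted over 6-8 concentrations for IC50, with vehicle wells used to correct for run-down.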
For orientation: The patch-clamp technique gives a direct electrical read-out from membranes.
In the case of `Cc1cc(F)ccc1N1CN(c2ccc[nH]c2=O)C(=O)c2ccc(C(F)(F)F)cc21` [Example 204, 1-(4-fluoro-2-methylphenyl)-3-(2-oxo-1,2-dihydropyridin-3-yl)-7-(trifluoromethyl)-2,3-dihydroquinazolin-4(1H)-one], the IC50 is 794 to 7940 nM.

Take `Cc1cc(F)ccc1N1CN(c2cnc(=O)[nH]c2C)C(=O)c2ccc(OC(F)(F)F)cc21` [Example 205, 1-(4-fluoro-2-methylphenyl)-3-(6-methyl-2-oxo-1,2-dihydropyrimidin-5-yl)-7-(trifluoromethoxy)-2,3-dihydroquinazolin-4(1H)-one]: the IC50 was ≤ 100 nM.

As to `Cc1ccc2c(n1)N(c1ccc(F)cc1C)CN(c1ccc(=O)[nH]c1C)C2=O` [Example 206, 1-(4-fluoro-2-methylphenyl)-7-methyl-3-(2-methyl-6-oxo-1,6-dihydropyridin-3-yl)-2,3-dihydropyrido[2,3-d]pyrimidin-4(1H)-one], the IC50 is 126 to 631 nM.

Turning to `CCc1cc(F)ccc1N1CN(c2ccc(=O)[nH]c2C)C(=O)c2cc(Cl)c(C#N)nc21` [Example 207, 6-chloro-1-(2-ethyl-4-fluorophenyl)-3-(2-methyl-6-oxo-1,6-dihydropyridin-3-yl)-4-oxo-1,2,3,4-tetrahydropyrido [2,3-d]pyrimidine-7-carbonitrile], the IC50 is ≤ 100 nM.

For the compound `Cc1cc(F)ccc1N1CN(c2ccc(=O)n(C)c2C)C(=O)c2cc(C(F)(F)F)ccc21` [Example 209, 3-(1,2-dimethyl-6-oxo-1,6-dihydropyridin-3-yl)-1-(4-fluoro-2-methylphenyl)-6-(trifluoromethyl)-2,3-dihydroquinazolin-4(1H)-one], the IC50 is 126 to 631 nM.

With `Cc1cc(F)ccc1N1CN(c2ccc(=O)[nH]c2Cl)C(=O)c2cc(C(F)(F)F)ccc21` [Example 210, 3-(2-chloro-6-oxo-1,6-dihydropyridin-3-yl)-1-(4-fluoro-2-methylphenyl)-6-(trifluoromethyl)-2,3-dihydroquinazolin-4(1H)-one], the IC50 was 126 to 631 nM.

In the case of `Cc1cc(F)ccc1N1CN(c2c(C)cc(=O)[nH]c2Br)C(=O)c2ccc(C(F)(F)F)cc21` [Example 211, 3-(2-bromo-4-methyl-6-oxo-1,6-dihydropyridin-3-yl)-1-(4-fluoro-2-methylphenyl)-7-(trifluoromethyl)-2,3-dihydroquinazolin-4(1H)-one], the IC50 was 794 to 7940 nM.

Turning to `Cc1[nH]c(=O)ccc1N1CN(c2ccc(F)cc2C(C)C)c2nc(C(F)(F)F)ccc2C1=O` [Example 212, 1-(4-fluoro-2-isopropylphenyl)-3-(2-methyl-6-oxo-1,6-dihydropyridin-3-yl)-7-(trifluoromethyl)-2,3-dihydropyrido[2,3-d]pyrimidin-4(1H)-one], the IC50 was ≤ 100 nM.

As to `Cc1[nH]c(=O)ccc1N1CN(c2ccc(F)cc2C(C)C)c2ncc(Cl)cc2C1=O` [Example 213, 6-chloro-1-(4-fluoro-2-isopropylphenyl)-3-(2-methyl-6-oxo-1,6-dihydropyridin-3-yl)-2,3-dihydropyrido[2,3-d]pyrimidin-4(1H)-one], the IC50 is 126 to 631 nM.

As to `Cc1cc(F)ccc1N1CN(c2ccc(=O)[nH]c2C)C(=S)c2ccc(C(F)(F)F)cc21` [Example 214, 5-(1-(4-fluoro-2-methylphenyl)-4-thioxo-7-(trifluoromethyl)-1,4-dihydroquinazolin-3(2H)-yl)-6-methylpyridin-2(1H)-one], the IC50 is ≤ 100 nM.

Regarding `Cc1cc(F)ccc1N1CN(c2ccc(=O)[nH]c2)C(=O)c2cc(C(F)(F)F)ccc21` [Example 215, 1-(4-Fluoro-2-methylphenyl)-3-(6-oxo-1,6-dihydropyridin-3-yl)-6-(trifluoromethyl)-2,3-dihydroquinazolin-4(1H)-one], the IC50 is 126 to 631 nM.

In the case of `COc1cc(F)ccc1N1CN(c2ccc(=O)[nH]c2)C(=O)c2ccc(C(F)(F)F)cc21` [Example 216, 1-(4-fluoro-2-methoxyphenyl)-3-(6-oxo-1,6-dihydropyridin-3-yl)-7-(trifluoromethyl)-2,3-dihydroquinazolin-4(1H)-one], the IC50 was 126 to 631 nM.

For the compound `Cc1cc(F)ccc1N1CN(c2ccc(=O)[nH]c2)C(=O)c2c1cccc2C(F)(F)F` [Example 217, 1-(4-fluoro-2-methylphenyl)-3-(6-oxo-1,6-dihydropyridin-3-yl)-5-(trifluoromethyl)-2,3-dihydroquinazolin-4(1H)-one], the IC50 is 794 to 7940 nM.

Take `Cc1cc(F)ccc1N1CN(c2c[nH]c(=O)c(C)c2)C(=O)c2ccc(C(F)(F)F)cc21` [Example 218, 1-(4-fluoro-2-methylphenyl)-3-(5-methyl-6-oxo-1,6-dihydropyridin-3-yl)-7-(trifluoromethyl)-2,3-dihydroquinazolin-4(1H)-one]: the IC50 is 126 to 631 nM.

Regarding `Cc1cc(F)ccc1N1CN(c2ccc(=O)[nH]n2)C(=O)c2ccc(C(F)(F)F)cc21` [Example 219, 1-(4-fluoro-2-methylphenyl)-3-(6-oxo-1,6-dihydropyridazin-3-yl)-7-(trifluoromethyl)-2,3-dihydroquinazolin-4(1H)-one], the IC50 was 794 to 7940 nM.

As to `O=C1c2ccc(C(F)(F)F)cc2N(Cc2ccc(F)cc2)CN1c1ccc(=O)[nH]c1` [Example 220, 1-(4-fluorobenzyl)-3-(6-oxo-1,6-dihydropyridin-3-yl)-7-(trifluoromethyl)-2,3-dihydroquinazolin-4(1H)-one], the IC50 is 794 to 7940 nM.

For the compound `Cc1cc(=O)[nH]cc1N1CN(c2ccc(F)cc2C)c2cc(C(F)(F)F)ccc2C1=O` [Example 221, 1-(4-fluoro-2-methylphenyl)-3-(4-methyl-6-oxo-1,6-dihydropyridin-3-yl)-7-(trifluoromethyl)-2,3-dihydroquinazolin-4(1H)-one], the IC50 is 126 to 631 nM.

As for `Cc1cc(F)ccc1N1CN(c2ccc(=O)[nH]c2)C(=O)c2ccc(C#N)cc21` [Example 222, 1-(4-fluoro-2-methylphenyl)-4-oxo-3-(6-oxo-1,6-dihydropyridin-3-yl)-1,2,3,4-tetrahydro-quinazoline-7-carbonitrile], the IC50 was 794 to 7940 nM.

Take `COc1cc(F)ccc1N1CN(c2ccc(=O)[nH]c2)C(=O)c2c1cccc2C(F)(F)F` [Example 223, 1-(4-fluoro-2-methoxyphenyl)-3-(6-oxo-1,6-dihydropyridin-3-yl)-5-(trifluoromethyl)-2,3-dihydroquinazolin-4(1H)-one]: the IC50 is 794 to 7940 nM.

For `Cc1ncsc1N1CN(c2ccc(=O)[nH]c2C)C(=O)c2cc(C(F)(F)F)ccc21` [Example 224, 3-(2-methyl-6-oxo-1,6-dihydropyridin-3-yl)-1-(4-methylthiazol-5-yl)-6-(trifluoromethyl)-2,3-dihydroquinazolin-4(1H)-one], the IC50 was 794 to 7940 nM.

On to `COc1ccc(N2CN(c3ccc(=O)[nH]c3C)C(=O)c3cc(C(F)(F)F)ccc32)c(OC)c1` [Example 225, 1-(2,4-dimethoxyphenyl)-3-(2-methyl-6-oxo-1,6-dihydropyridin-3-yl)-6-(trifluoromethyl)-2,3-dihydroquinazolin-4(1H)-one], for which the IC50 was ≤ 100 nM.

For `COc1cc(F)ccc1N1CN(c2ccc(=O)[nH]c2C)C(=O)c2cc(C(F)(F)F)ccc21` [Example 226, 1-(4-fluoro-2-methoxyphenyl)-3-(2-methyl-6-oxo-1,6-dihydropyridin-3-yl)-6-(trifluoromethyl)-2,3-dihydroquinazolin-4(1H)-one], the IC50 was ≤ 100 nM.

Source of the values: US20230103791A1 (GLAXOSMITHKLINE INTELLECTUAL PROPERTY DEVELOPMENT LIMITED, priority 2019, published 2023).
